The test system of one data set is melanoma SK-MEL-28 cells. Description: MTS cell viability assay, SK-MEL-28. As to conditions: Homo sapiens, 24 h exposure, mean ± SD, read-out: Half Maximal Inhibitory Concentration (IC50) SK-MEL-28. It is filed as cell-based. How it is done: (§1) In the present study, the cytotoxic activity of compounds 1–3, 5–7, and 9 against human normal embryonic kidney cells HEK293 and a panel of human cancer cells HT-29, SK-MEL-28, and MDA-MB-231 was measured by the MTS assay after 24 h of exposure. Different concentrations of doxorubicin (10, 50, and 100 µM), used as a positive control, and compounds 1–3, 5–7, and 9 (1, 10, and 50 µM) were studied.
(§2) The human embryonic kidney cells HEK293 (ATCC® CRL-1573™), the colorectal adenocarcinoma cell line HT-29 (ATCC® HTB-38), the melanoma SK-MEL-28 (ATCC® HTB-72™), and breast adenocarcinoma MDA-MB-231 (ATCC® HTB-26™) cell lines were obtained from the American Type Culture Collection (Manassas, VA, USA).
(§3) HT 29 cells were cultured in McCoy’s 5A medium; HEK293, SK-MEL-28, and MDA-MB-231 cell lines were maintained in the DMEM medium. The culture media were supplemented with 10% FBS and a 1% penicillin/streptomycin solution. The cell cultures were maintained at 37 °C in a humidified atmosphere containing 5% CO2.
(§4) Compounds 1–3, 5–7, and 9 were dissolved in a sterile dimethyl sulfoxide solution (DMSO) to prepare stock concentrations of 20 mM. Cells were exposed to serially diluted 1–3, 5–7, and 9 (1–100 µM) (with the culture medium used as a diluent) (the final concentration of DMSO was less than 0.5%).
(§5) Doxorubicin (Doxo) (Teva Pharmaceutical Industries, Ltd. (Israel)) was dissolved in sterile PBS to prepare stock concentrations of 10 mM. Cells were exposed to serially diluted Doxo (10–100 µM) (with the culture medium used as a diluent).
(§6) The effect of compounds 1–3, 5–7, and 9 on the viability of tested cell lines was evaluated by the MTS assay. HEK293 (1.0 × 10^4/200 µL), HT-29 (1.0 × 10^4/200 µL), SK-MEL-28 (0.8 × 10^4/200 µL), and MDA-MB-231 (1.0 × 10^4/200 µL) cells were seeded on a 96-well plate and incubated for 24 h at 37°C in a CO2 incubator. The cells were exposed to either DMSO (vehicle control) or Doxo at concentrations of […] (positive control) or 1–3, 5–7, and 9 at concentrations of 1, 10, and 50 µM for 24 h. The cells were subsequently incubated with 15 µL MTS reagent for 3 h, and the absorbance of each well was measured at 490/630 nm on a Power Wave XS microplate reader (BioTek, Winooski, VT, USA). The concentration at which a compound exerted half of its maximal inhibitory effect on cell viability (IC50) was calculated using the AAT-Bioquest® online calculator [27].

Data set [1] deals with colorectal adenocarcinoma cell line HT-29. Kind of data set: MTS cell viability assay, HT-29. It is filed as cell-based. The following applies: Homo sapiens, 24 h exposure, mean ± SD, read-out: Half Maximal Inhibitory Concentration (IC50) HT-29. As to the method: as §1, §2, §3, §4, §5, §6
For data set [2], the system named is breast adenocarcinoma MDA-MB-231 cells. Kind of data set: MTS cell viability assay, MDA-MB-231. It is filed as cell-based, human. The following applies: for IC50: Homo sapiens, MDA-MB-231, MTS assay, 24 h exposure, mean ± SD, read-out: Half Maximal Inhibitory Concentration (IC50) MDA-MB-231; for cytotoxic activity against MDA-MB-231 cells (in words): concentrations of up to 50 µM, MTS, 24 h. How it is done:
as §1, §2, §3, §4, §5, §6

Data set [3] has as its system human breast cancer cells MDA-MB-231. Description: Soft agar colony formation assay. It counts as cell-based. The following applies: MDA-MB-231, 336 h, 14 days of incubation, read-out: inhibition of colony formation (decrease in number of colonies) of MDA-MB-231 cells. An excerpt: Since compounds 1–3, 5–7, and 9 inhibited the viability of breast cancer cells MDA-MB-231, we then tested their ability to inhibit colony formation of MDA-MB-231 cells using the soft agar assay. The colony formation assay, also referred to as soft agar assay, allows for screening the therapeutic efficacy of compounds for anchorage-independent cell growth, which is one of the hallmark characteristics of cellular transformation and uncontrolled growth of cancer cells.
Figure 4 The effect of compounds 1–3, 5–7, and 9 on colony formation of human breast cancer cells MDA-MB-231 (2.4 × 10^4) that were exposed to PBS (control), Doxo (5, 10, and 20 µM), or the compounds under study (5, 10, and 20 µM) and placed on dishes with 0.3% Basal Medium Eagle (BME) agar containing 10% fetal bovine serum FBS, 2 mM L-glutamine, and 25 µg/mL gentamicin. After 14 days of incubation, the number of colonies was counted under a microscope using the ImageJ software program.
MDA-MB-231 cells (2.4 × 10^4/mL) were exposed to either DMSO (vehicle control) or Doxo (positive control) at concentrations of 5, 10, and 20 µM, and to 1–3, 5–7, and 9 at concentrations of 5, 10, 20 µM. Then, the cells were applied on dishes with 0.3% BME agar containing 10% FBS, 2 mM L-glutamine, and 25 µg/mL gentamicin. The cultures were maintained at 37°C in a 5% CO2 incubator for 14 days. The number and size of the colonies were estimated under a Motic microscope AE 20 and using the ImageJ software bundled with 64-bit Java 1.8.0_112 (NIH, Bethesda, Maryland, USA).

The subject of data set [4] is human normal embryonic kidney cells HEK293. Kind of data set: MTS cell viability assay, HEK293. It counts as cell-based. The following applies: 24 h exposure, mean ± SD, read-out: Half Maximal Inhibitory Concentration (IC50) HEK293. As to the method:
as §1, §2, §3, §4, §5, §6

Data set [5] relates to murine leukemic cells L1210. Also on record: method as in doi:10.1021/jo00080a023, PMID 12192142. As to conditions: at a concentration of 2 μM; ref [21],[28]; cited from earlier work.
The subject of data set [6] is a number of human cancer cell lines. The arrangement: method as in doi:10.1021/jo00080a023, PMID 12192142. As to conditions: at concentrations of 15–34 μM; ref [21],[28]; cited from earlier work.

Some results are limits rather than exact numbers.

Turning to `CCCCCCCCCCCCCCC[C@@H](O)C(=O)N[C@@H](CO)[C@H](O)[C@H](O)CCCC/C=C\CCCCCCCCCCC(C)C` [Compound 3, (2S,3S,4R,9Z)-2-[(2R)-2-hydroxyheptadecanoylamino]-21-methyl-9-docosen-1,3,4-triol], the IC50 is more than 50 µM in the data set with melanoma SK-MEL-28 cells, more than 50 µM in data set [1], 49.4 ± 1.6 µM in data set [2] and more than 50 µM in data set [4]. In data set [3], the inhibition at 20 µM was 48%.

Turning to `CCCCCCCCCCCCCCCCCCCC[C@@H](O)C(=O)N[C@@H](CO[C@@H]1O[C@H](CO)[C@@H](O)[C@H](O)[C@H]1O)[C@H](O)[C@H](O)CCCCCCCCCC(C)CC` (some centres unmarked) [Compound 7, CE-3-2], the IC50 (with melanoma SK-MEL-28 cells; in data set [1]; in data set [2]; in data set [4]) was more than 50 µM throughout. Also, the “cytotoxic activity against MDA-MB-231 cells (in words)” value in data set [2] is “slight cytotoxic activity”. In data set [3], the inhibition at 20 µM is 44%.

With `CCCCCCC/C=C/C(C)=C/CC/C=C/[C@@H](O)[C@H](CO[C@@H]1O[C@H](CO)[C@@H](O)[C@H](O)[C@H]1O)NC(=O)[C@H](O)CCCCCCCCCCCCCCCCCCCCC` [Compound 6, ophidiacerebroside D], the IC50 is more than 50 µM with melanoma SK-MEL-28 cells, more than 50 µM in data set [1], 40.5 ± 0.5 µM in data set [2] and more than 50 µM in data set [4]. Moreover, in data set [5], the “cytotoxic activity against murine leukemic cells L1210 (in words)” value was “strong cytotoxic activity”. Besides, the inhibition at 20 µM in data set [3] is 68%. Also, the “cytotoxic activity against a number of human cancer cell lines (in words)” value in data set [6] is recorded as “moderate cytotoxic activity”.

For the compound `CCCCCCC/C=C/C(C)=C/CC/C=C/[C@@H](O)[C@H](CO[C@@H]1O[C@H](CO)[C@@H](O)[C@H](O)[C@H]1O)NC(=O)[C@H](O)CCCCCCCCCCCCCCCCCCCC` [Compound 5, ophidiacerebroside C], the IC50 is more than 50 µM in the data set with melanoma SK-MEL-28 cells, more than 50 µM in data set [1], 48.7 ± 1.8 µM in data set [2] and more than 50 µM in data set [4]. Further, in data set [5], the “cytotoxic activity against murine leukemic cells L1210 (in words)” value is recorded as “strong cytotoxic activity”. Further, the inhibition at 20 µM in data set [3] is 54%. For the same compound, in data set [6], the “cytotoxic activity against a number of human cancer cell lines (in words)” value was “moderate cytotoxic activity”.

As for `CCCCCCCCCCCCCC[C@@H](O)C(=O)N[C@@H](CO)[C@H](O)[C@H](O)CCCC/C=C\CCCCCCCCC(C)C` [Compound 1, (2S,3S,4R,9Z)-2-[(2R)-2-hydroxyhexadecanoylamino]-19-methyl-9-icosen-1,3,4-triol], the IC50 (in the data set with melanoma SK-MEL-28 cells; in data set [1]; in data set [2]; in data set [4]) was more than 50 µM in each case. Also, in data set [2], the “cytotoxic activity against MDA-MB-231 cells (in words)” value is recorded as “slight cytotoxic activity”. The inhibition at 20 µM in data set [3] turned out to be 46%.

Regarding `COc1cccc2c1C(=O)c1c(O)c3c(c(O)c1C2=O)C[C@@](O)(C(=O)CO)C[C@@H]3O[C@H]1C[C@H](N)[C@H](O)[C@H](C)O1` [Doxorubicin, reference compound], the IC50 in the data set on melanoma SK-MEL-28 cells came to 40 ± 5 µM; in data set [1] it was 21.8 ± 3.2 µM; in data set [2] it was 22.3 ± 0.2 µM; in data set [4], 35.7 ± 1.2 µM. For the same compound, the inhibition at 20 µM in data set [3] is 70%.

For the compound `CCCCCCCCCCCCCCCCCCCCCC[C@@H](O)C(=O)N[C@@H](CO[C@@H]1O[C@H](CO)[C@@H](O)[C@H](O)[C@H]1O)[C@H](O)[C@H](O)CCCCCCCCCC(C)CC` (stereo partly drawn) [Compound 9, (2S,3S,4R)-1-O-(β-D-glucopyranosyl)-2-[(2R)-2-hydroxytetracosanoylamino]-14-methylhexadecan-3,4-diol], the IC50 (in the data set on melanoma SK-MEL-28 cells; in data set [1]; in data set [2]; in data set [4]) was more than 50 µM throughout. For the same compound, the “cytotoxic activity against MDA-MB-231 cells (in words)” value in data set [2] is reported as “slight cytotoxic activity”. The inhibition at 20 µM in data set [3] worked out at 50%.

With `CCCCCCCCCCCCCC[C@@H](O)C(=O)N[C@@H](CO)[C@H](O)[C@H](O)CCCC/C=C\CCCCCCCCCCC(C)C` [Compound 2, (2S,3S,4R,9Z)-2-[(2R)-2-hydroxyhexadecanoylamino]-21-methyl-9-docosen-1,3,4-triol], the IC50 with melanoma SK-MEL-28 cells was more than 50 µM; in data set [1], more than 50 µM; in data set [2] it was 48.7 ± 2.4 µM; in data set [4], more than 50 µM. The inhibition at 20 µM in data set [3] was found to be 68%.

These data come from publication PMC9604662, “New Ceramides and Cerebrosides from the Deep-Sea Far Eastern Starfish Ceramaster patagonicus” (Marine Drugs, 2022).
